Measured values reported in ChEMBL document CHEMBL1201862, “PubChem BioAssay data set” (2004).
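Where inhibition never reached the appropriate level, the endpoint shown equals the highest concentration tested. Otherwise, values were interpolated linearly from a five-concentration, 48-hour dose response in 96-well plates. GI50 = concentration required for 50% inhibition of growth.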 Calls of active or inactive are those of the source. Cut-off read from the data, not from the text of the source: active = GI50 up to about 1.1 µM and inactive = higher.

Legend:
Assay in all cases: NCI anticancer screen, dose series, 48 h
SK-OV-3 = test system: SK-OV-3
ACHN = test system: ACHN
KM12 = test system: KM12
UO-31 = test system: UO-31
OVCAR-3 = test system: OVCAR-3
SF-295 = test system: SF-295
SNB-75 = test system: SNB-75
OVCAR-5 = test system: OVCAR-5
MOLT-4 = test system: MOLT-4
HOP-92 = test system: HOP-92
U-251 = test system: U-251
MCF7 = test system: MCF7
NCI-H522 = test system: NCI-H522
SW-620 = test system: SW-620
HCT-15 = test system: HCT-15
IGROV-1 = test system: IGROV-1
786-0 = test system: 786-0
MDA-MB-231 = test system: MDA-MB-231
HCC 2998 = test system: HCC 2998
SK-MEL-2 = test system: SK-MEL-2
NCI-H460 = test system: NCI-H460
CCRF-CEM = test system: CCRF-CEM
SR = test system: SR
M14 = test system: M14
A549 = test system: A549
NCI-H23 = test system: NCI-H23
PC-3 = test system: PC-3
EKVX = test system: EKVX
SK-MEL-5 = test system: SK-MEL-5
HCT-116 = test system: HCT-116
UACC-257 = test system: UACC-257
CAKI-1 = test system: CAKI-1
SF-539 = test system: SF-539
SF-268 = test system: SF-268
HOP-62 = test system: HOP-62
HT-29 = test system: HT-29
MDA-N = test system: MDA-N
COLO 205 = test system: COLO 205
T47D = test system: T47D
SK-MEL-28 = test system: SK-MEL-28
OVCAR-8 = test system: OVCAR-8
BT-549 = test system: BT-549
SN12C = test system: SN12C
NCI/ADR-RES = test system: NCI/ADR-RES
HL-60 = test system: HL-60
K562 = test system: K562
Hs-578T = test system: Hs-578T
OVCAR-4 = test system: OVCAR-4
LOX IMVI = test system: LOX IMVI
RPMI-8226 = test system: RPMI-8226
TK-10 = test system: TK-10
SNB-19 = test system: SNB-19
UACC-62 = test system: UACC-62
Malme-3M = test system: Malme-3M
MDA-MB-435 = test system: MDA-MB-435
A498 = test system: A498
DU-145 = test system: DU-145
RXF 393 = test system: RXF 393
NCI-H226 = test system: NCI-H226

COC(=O)CCCCC/C(=C\C(=O)C(Cl)(Cl)Cl)OC
GI50 (SK-OV-3): 61.4 µM (inactive) | GI50 (ACHN): 39.7 µM (inactive) | GI50 (KM12): 26.4 µM (inactive) | GI50 (UO-31): 84.5 µM (inactive) | GI50 (OVCAR-3): 26.6 µM (inactive) | GI50 (SF-295): 43.3 µM (inactive) | GI50 (SNB-75): 21.4 µM (inactive) | GI50 (OVCAR-5): > 100 µM (inactive) | GI50 (MOLT-4): 16.7 µM (inactive) | GI50 (HOP-92): 26.1 µM (inactive) | GI50 (U-251): 26.4 µM (inactive) | GI50 (MCF7): 23.3 µM (inactive) | GI50 (NCI-H522): 16.6 µM (inactive) | GI50 (SW-620): 31.7 µM (inactive) | GI50 (HCT-15): 24.2 µM | GI50 (IGROV-1): 12.7 µM (inactive) | GI50 (786-0): 24.9 µM (inactive) | GI50 (MDA-MB-231): 80 µM (inactive) | GI50 (HCC 2998): 15.9 µM (inactive) | GI50 (SK-MEL-2): 22.2 µM (inactive) | GI50 (NCI-H460): 28.3 µM (inactive) | GI50 (CCRF-CEM): 15.4 µM (inactive) | GI50 (SR): 18.1 µM (inactive) | GI50 (M14): 31.1 µM (inactive) | GI50 (A549): 45.6 µM (inactive) | GI50 (NCI-H23): 31.8 µM (inactive) | GI50 (PC-3): 27.8 µM (inactive) | GI50 (EKVX): 24.7 µM (inactive) | GI50 (SK-MEL-5): 38.8 µM (inactive) | GI50 (HCT-116): 20.2 µM (inactive) | GI50 (UACC-257): 21.8 µM (inactive) | GI50 (CAKI-1): 30.8 µM (inactive) | GI50 (SF-539): 18.6 µM (inactive) | GI50 (SF-268): 24.4 µM (inactive) | GI50 (HOP-62): 33.7 µM (inactive) | GI50 (HT-29): 30.5 µM (inactive) | GI50 (MDA-N): 24 µM (inactive) | GI50 (COLO 205): 26.5 µM (inactive) | GI50 (T47D): 28.5 µM (inactive) | GI50 (SK-MEL-28): 32.9 µM (inactive) | GI50 (OVCAR-8): 25.4 µM (inactive) | GI50 (BT-549): 38.9 µM (inactive) | GI50 (SN12C): 33.5 µM (inactive) | GI50 (NCI/ADR-RES): 30.5 µM (inactive) | GI50 (HL-60): 22.3 µM (inactive) | GI50 (K562): 26.8 µM (inactive) | GI50 (Hs-578T): 26.4 µM (inactive) | GI50 (OVCAR-4): 19.5 µM (inactive) | GI50 (LOX IMVI): 20.9 µM (inactive) | GI50 (RPMI-8226): 20.4 µM (inactive) | GI50 (TK-10): 29.4 µM (inactive) | GI50 (SNB-19): 48.2 µM (inactive) | GI50 (UACC-62): 36 µM (inactive) | GI50 (Malme-3M): 21.1 µM (inactive) | GI50 (MDA-MB-435): 22.9 µM (inactive) | GI50 (A498): 40.8 µM (inactive) | GI50 (DU-145): 25.5 µM (inactive) | GI50 (RXF 393): 16.7 µM (inactive)

O=c1[nH]c(=O)n(CCOCP(=O)(O)O)nc1Br
GI50 (ACHN): > 100 µM (inactive) | GI50 (KM12): > 100 µM (inactive) | GI50 (UO-31): > 100 µM (inactive) | GI50 (OVCAR-3): > 100 µM (inactive) | GI50 (SNB-75): > 100 µM (inactive) | GI50 (OVCAR-5): > 100 µM (inactive) | GI50 (MOLT-4): > 100 µM (inactive) | GI50 (HOP-92): > 100 µM (inactive) | GI50 (U-251): > 100 µM (inactive) | GI50 (MCF7): > 100 µM (inactive) | GI50 (NCI-H522): > 100 µM (inactive) | GI50 (SW-620): > 100 µM (inactive) | GI50 (HCT-15): > 100 µM | GI50 (IGROV-1): > 100 µM (inactive) | GI50 (MDA-MB-231): > 100 µM (inactive) | GI50 (HCC 2998): > 100 µM (inactive) | GI50 (SK-MEL-2): > 100 µM (inactive) | GI50 (NCI-H460): > 100 µM (inactive) | GI50 (CCRF-CEM): > 100 µM (inactive) | GI50 (SR): > 100 µM (inactive) | GI50 (M14): > 100 µM (inactive) | GI50 (A549): > 100 µM (inactive) | GI50 (NCI-H23): > 100 µM (inactive) | GI50 (PC-3): > 100 µM (inactive) | GI50 (EKVX): > 100 µM (inactive) | GI50 (SK-MEL-5): > 100 µM (inactive) | GI50 (CAKI-1): > 100 µM (inactive) | GI50 (SF-539): > 100 µM (inactive) | GI50 (SF-268): > 100 µM (inactive) | GI50 (HOP-62): > 100 µM (inactive) | GI50 (HT-29): > 100 µM (inactive) | GI50 (MDA-N): > 100 µM (inactive) | GI50 (COLO 205): > 100 µM (inactive) | GI50 (T47D): > 100 µM (inactive) | GI50 (SK-MEL-28): > 100 µM (inactive) | GI50 (OVCAR-8): > 100 µM (inactive) | GI50 (NCI-H226): > 100 µM (inactive) | GI50 (BT-549): > 100 µM (inactive) | GI50 (SN12C): > 100 µM (inactive) | GI50 (NCI/ADR-RES): > 100 µM (inactive) | GI50 (HL-60): > 100 µM (inactive) | GI50 (Hs-578T): > 100 µM (inactive) | GI50 (LOX IMVI): > 100 µM (inactive) | GI50 (RPMI-8226): > 100 µM (inactive) | GI50 (TK-10): > 100 µM (inactive) | GI50 (SNB-19): > 100 µM (inactive) | GI50 (Malme-3M): > 100 µM (inactive) | GI50 (MDA-MB-435): > 100 µM (inactive) | GI50 (A498): > 100 µM (inactive) | GI50 (DU-145): > 100 µM (inactive) | GI50 (RXF 393): > 100 µM (inactive)

O=C1Nc2ccccc2/C1=N/N=c1\cccc[nH]1
GI50 (SK-OV-3): 18.6 µM (inactive) | GI50 (ACHN): 11 µM (inactive) | GI50 (KM12): 10.8 µM (inactive) | GI50 (UO-31): 12.1 µM (inactive) | GI50 (OVCAR-3): 48.8 µM (inactive) | GI50 (SF-295): 51.9 µM (inactive) | GI50 (SNB-75): 21.5 µM (inactive) | GI50 (OVCAR-5): 51.5 µM (inactive) | GI50 (MOLT-4): 49.3 µM (inactive) | GI50 (U-251): 19 µM (inactive) | GI50 (MCF7): 8.17 µM (inactive) | GI50 (NCI-H522): 17.1 µM (inactive) | GI50 (SW-620): > 100 µM (inactive) | GI50 (HCT-15): 30.3 µM | GI50 (IGROV-1): 1 µM (active) | GI50 (786-0): 12.9 µM (inactive) | GI50 (MDA-MB-231): 12.6 µM (inactive) | GI50 (HCC 2998): 23.7 µM (inactive) | GI50 (SK-MEL-2): > 100 µM (inactive) | GI50 (NCI-H460): 14.6 µM (inactive) | GI50 (CCRF-CEM): 18.8 µM (inactive) | GI50 (SR): 14.3 µM (inactive) | GI50 (M14): > 100 µM (inactive) | GI50 (A549): 48.8 µM (inactive) | GI50 (NCI-H23): 28.2 µM (inactive) | GI50 (PC-3): 52.8 µM (inactive) | GI50 (EKVX): 14.5 µM (inactive) | GI50 (SK-MEL-5): 40.4 µM (inactive) | GI50 (HCT-116): 11.6 µM (inactive) | GI50 (UACC-257): 41.8 µM (inactive) | GI50 (CAKI-1): 32.8 µM (inactive) | GI50 (SF-268): 35.4 µM (inactive) | GI50 (HOP-62): 34.1 µM (inactive) | GI50 (HT-29): 22.2 µM (inactive) | GI50 (MDA-N): > 100 µM (inactive) | GI50 (COLO 205): 33.7 µM (inactive) | GI50 (T47D): 38.5 µM (inactive) | GI50 (SK-MEL-28): > 100 µM (inactive) | GI50 (OVCAR-8): 11.9 µM (inactive) | GI50 (NCI-H226): 16.1 µM (inactive) | GI50 (BT-549): 43.6 µM (inactive) | GI50 (SN12C): 29.2 µM (inactive) | GI50 (NCI/ADR-RES): 10.2 µM (inactive) | GI50 (HL-60): 16 µM (inactive) | GI50 (K562): 52.5 µM (inactive) | GI50 (Hs-578T): 39.1 µM (inactive) | GI50 (OVCAR-4): 20.2 µM (inactive) | GI50 (LOX IMVI): 28.8 µM (inactive) | GI50 (RPMI-8226): 20.6 µM (inactive) | GI50 (TK-10): 22.5 µM (inactive) | GI50 (SNB-19): 30.7 µM (inactive) | GI50 (UACC-62): 65.5 µM (inactive) | GI50 (MDA-MB-435): > 100 µM (inactive) | GI50 (A498): 25.8 µM (inactive) | GI50 (DU-145): 21 µM (inactive) | GI50 (RXF 393): 97.3 µM (inactive)
